Data as given in patent publication US20250228832A1, “METHODS FOR TREATING DISORDERS AMELIORATED BY MUSCARINIC RECEPTOR ACTIVATION” (KARUNA THERAPEUTICS, INC., priority 2022, published 2025).
Read-outs that look alike come from different tables or passages of the source.

Biological target: T1, human M2 receptor (Homo sapiens, UniProt P08172)
T1 sequence (P08172 1-466): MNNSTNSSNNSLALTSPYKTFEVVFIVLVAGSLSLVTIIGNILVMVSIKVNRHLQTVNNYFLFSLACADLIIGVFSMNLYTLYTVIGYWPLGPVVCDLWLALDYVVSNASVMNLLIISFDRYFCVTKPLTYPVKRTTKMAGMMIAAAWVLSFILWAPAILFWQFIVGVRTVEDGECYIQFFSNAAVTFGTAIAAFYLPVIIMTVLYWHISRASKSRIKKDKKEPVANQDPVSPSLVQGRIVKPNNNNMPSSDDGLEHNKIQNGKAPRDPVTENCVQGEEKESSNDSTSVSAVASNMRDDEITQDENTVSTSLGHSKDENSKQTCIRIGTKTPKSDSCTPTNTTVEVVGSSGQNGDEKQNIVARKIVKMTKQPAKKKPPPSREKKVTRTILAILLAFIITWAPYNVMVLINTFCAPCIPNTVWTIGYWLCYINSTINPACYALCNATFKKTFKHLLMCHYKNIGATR
Experiment: SPA GTP (GTPgS) binding curve shift assay, M2
Assay type: biochemical
Experimental: Membranes were prepared for GTPgS binding assays from CHO-K1 cells stably expressing human M2 or human M4 receptors. Cells were grown in 5-layer cell culture flasks. Cells were washed with 50 mL of PBS and then dissociated with 0.05% trypsin. Dissociated cells were then collected by centrifugation at 650×g for 8 min at 4° C. Pellets were rewashed in PBS by centrifugation and resuspended in 30 mL of 20 mM HEPES, 10 mM EDTA, pH 7.4. After sitting on ice for 30 min, membranes were collected by centrifugation at 50000×g for 15 min at 4° C., resuspended in 30 mL of 20 mM HEPES, 0.1 mM EDTA, pH 7.4, and collected again by centrifugation. Pellets were then washed twice by centrifugation in 30 mL of 20 mM HEPES, pH 7.4, and stored at −80° C. until the day of the assay. On the day of the assay, pellets were thawed on ice and resuspended in 1 mL of 20 mM HEPES, pH 7.4, 10 mM MgCl2, and 100 mM NaCl using Dounce homogenization.
According to Promega guidelines, membrane protein concentration was determined by BCA protein assay (Promega, Madison, WI).
On the day of the assay, serial dilutions of test PAM compounds were brought up in assay buffer (20 mM HEPES, 10 mM MgCl2; see Table 4 for NaCl concentrations) at four times the final assay concentration. […] of membrane homogenates (containing […] of membrane protein) were prepared in assay buffer supplemented with GDP at 4× final assay concentration (see Table 4 for GDP concentrations) and dispensed into 96 well polypropylene, U-bottom Greiner plates. Membrane plates were incubated for 10 min at room temperature with gentle shaking. Then, 25 μL of test compounds were added to assay plates. Plates were then incubated, with shaking, for an additional 10-15 min. Then, 25 μL of diluted agonists serially diluted in assay buffer at 4× final assay concentration was added to assay plates. Plates were then incubated, with shaking, for an additional 10-15 min. Next, […] of 0.4 nM ^35S-GTP (Perkin Elmer, Waltham, MA) in assay buffer was added to assay mixtures. The binding reaction was left on the shaker for 1 h at room temperature. Membranes in assay reactions were then transferred to GF/C filter plates (UniFilter, Perkin Elmer) and washed three times using FilterMate Harvester (Perkin Elmer) with cold assay buffer containing no GDP. Filter plates were then dried at 40° C. overnight, and […] of Beta Plate Scintillation liquid was added. Plates were top and bottom sealed before being read on the TopCount scintillation counter (Perkin Elmer, Waltham, MA).
Raw data for all assays was transmitted directly from plate readers into the Beacon database for processing. All assay plates contained positive and negative control wells for data normalization and scaling. […] All control wells contained DMSO at a final assay concentration that matched the test compound wells.
For GTPgS assays, the negative control wells were defined as 0% response. The highest response in a plate was scaled to 1, representing 100% response. Data from test compound wells was scaled to these controls and are reported as % control values. This was done to allow for subsequent GraphPad cooperativity analysis, setting the maximal response at no more than 1.

[1] = M2, Emraclidine concentration 0 nM
[2] = M2, Emraclidine concentration 41.2 nM, read-out: Emax
[3] = M2, Emraclidine concentration 123 nM, read-out: Emax
[4] = M2, Emraclidine concentration 370 nM
[5] = M2, Emraclidine concentration 1110 nM, read-out: Emax
[6] = M2, Emraclidine concentration 3330 nM, read-out: Emax
[7] = M2, Emraclidine concentration […]
[8] = M2, MK-4710 concentration 41.2 nM, read-out: Emax
[9] = M2, MK-4710 concentration 123 nM, read-out: Emax
[10] = M2, MK-4710 concentration 370 nM
[11] = M2, MK-4710 concentration 1110 nM, read-out: Emax
[12] = M2, MK-4710 concentration 3330 nM, read-out: Emax

SMILES: CCCCCOc1nsnc1C1=CCCCN1C [KTX-517, 3-(1-methyl-1,4,5,6-tetrahydropyridin-2-yl)-4-(pentyloxy)-1,2,5-thiadiazole]
- EC50 [1]: 18.5 nM
- Emax [1]: 35.6%
- Emax [2]: 57.9%
- Emax [3]: 51.1%
- Emax at […] [4]: 52.6%
- Emax [5]: 65.9%
- Emax [6]: 79.2%
- Emax at […] [7]: 44.8%
- α (cooperativity, affinity shift) (M2, M4 PAM Emraclidine): 1.0
- β (cooperativity, efficacy shift) (M2, M4 PAM Emraclidine): 18.1
- τ (agonist pharmacology) (M2, M4 PAM Emraclidine): 0.1
- α (cooperativity, affinity shift) (M2, M4 PAM MK-4710): 1.0
- β (cooperativity, efficacy shift) (M2, M4 PAM MK-4710): 5.0
- τ (agonist pharmacology) (M2, M4 PAM MK-4710): 0.1
- EC50 (M2, MK-4710 concentration 0 nM): 14.3 nM
- Emax (M2, MK-4710 concentration 0 nM): 45.1%
- EC50 (M2, MK-4710 concentration 41.2 nM): 11.9 nM
- Emax [8]: 53.2%
- EC50 (M2, MK-4710 concentration 123 nM): 14.8 nM
- Emax [9]: 55.6%
- EC50 [10]: 13.1 nM
- Emax at […] [10]: 59.1%
- EC50 (M2, MK-4710 concentration 1110 nM): 15.8 nM
- Emax [11]: 70.6%
- EC50 (M2, MK-4710 concentration 3330 nM): 10.3 nM
- Emax [12]: 78.7%
- EC50 (M2, MK-4710 concentration […]): 25.7 nM
- Emax at […] (M2, MK-4710 concentration […]): 60.6%

SMILES: CCCCCCCOc1nsnc1C1=CCCCN1C [KTX-593, 3-(heptyloxy)-4-(1-methyl-1,4,5,6-tetrahydropyridin-2-yl)-1,2,5-thiadiazole]
- EC50 [1]: 35.7 nM
- Emax [1]: 39.8%
- Emax [2]: 52.6%
- Emax [3]: 52.2%
- Emax at […] [4]: 50.1%
- Emax [5]: 67.5%
- Emax [6]: 75.1%
- Emax at […] [7]: 48.7%
- α (cooperativity, affinity shift) (M2, M4 PAM Emraclidine): 1.0
- β (cooperativity, efficacy shift) (M2, M4 PAM Emraclidine): 1370.0
- τ (agonist pharmacology) (M2, M4 PAM Emraclidine): 1.6
- α (cooperativity, affinity shift) (M2, M4 PAM MK-4710): 1.0
- β (cooperativity, efficacy shift) (M2, M4 PAM MK-4710): 10.3
- τ (agonist pharmacology) (M2, M4 PAM MK-4710): 0.0
- EC50 (M2, MK-4710 concentration 0 nM): 19.6 nM
- Emax (M2, MK-4710 concentration 0 nM): 38.7%
- Emax [8]: 50.1%
- Emax [9]: 50.2%
- Emax at […] [10]: 61.4%
- Emax [11]: 62.2%
- Emax [12]: 77.6%
- Emax at […] (M2, MK-4710 concentration […]): 57%

SMILES: CC1OC2(CS1)CN1CCC2CC1 (stereo not shown) [cevimeline, Cevimeline, reference compound]
- EC50 [1]: 2100 nM
- Emax [1]: 34.0%
- Emax [2]: 57%
- Emax [3]: 51.8%
- Emax at […] [4]: 48.6%
- Emax [5]: 51.4%
- Emax [6]: 69.6%
- Emax at […] [7]: 43.8%
- α (cooperativity, affinity shift) (M2, M4 PAM Emraclidine): 1.0
- β (cooperativity, efficacy shift) (M2, M4 PAM Emraclidine): 21.1
- τ (agonist pharmacology) (M2, M4 PAM Emraclidine): 0.0
- α (cooperativity, affinity shift) (M2, M4 PAM MK-4710): 1.0
- β (cooperativity, efficacy shift) (M2, M4 PAM MK-4710): 53.4
- τ (agonist pharmacology) (M2, M4 PAM MK-4710): 0.0
- EC50 (M2, MK-4710 concentration 0 nM): 2260 nM
- Emax (M2, MK-4710 concentration 0 nM): 39.6%
- Emax [8]: 38.2%
- Emax [9]: 39%
- Emax at […] [10]: 39.3%
- Emax [11]: 49.5%
- Emax [12]: 68.2%
- Emax at […] (M2, MK-4710 concentration […]): 42.1%

SMILES: CCCCCCOc1nsnc1C1=CCCN(C)C1 [xanomeline, reference compound]
- Emax: 74.7%
- Emax [1]: 36.2%
- Emax [2]: 48.2%
- Emax [3]: 49.8%
- Emax at […] [4]: 41.5%
- Emax [5]: 59.6%
- Emax [6]: 64.1%
- Emax at […] [7]: 41.7%
- τ (agonist pharmacology) (M2, M4 PAM Emraclidine): 0.0
- τ (agonist pharmacology) (M2, M4 PAM MK-4710): 0.0
- Emax (M2, MK-4710 concentration 0 nM): 55.6%
- Emax [8]: 65.3%
- Emax at […] [10]: 55.5%
- Emax [11]: 74.1%
- Emax [12]: 75.7%
- Emax at […] (M2, MK-4710 concentration […]): 60.1%
